In general, IC50 refers to the point on the concentration scale where inhibition reaches its midpoint.

SMILES strings stand for the structures. Structures can show the parent of a compound that is named as a salt.

For one test, the system named is SUDHL-6 cell line (diffuse large B cell lymphoma). As to the kind of experiment: SUDHL-6 cell proliferation assay (Example B3). The conditions noted are these: Homo sapiens, SU-DHL-6, 72 h, SUDHL-6 cells, 3 days, Cell Titer-GLO. In kind it is cell-based. How it is done:
Example B3: SUDHL-6 Cell Proliferation Assay
SUDHL-6 cell line (diffuse large B cell lymphoma) was purchased from ATCC (Manassas, Va.) and maintained in the culture medium recommended (RPMI and 10% FBS). To measure the anti-proliferation activity of the compounds through ATP quantitation, the SUDHL-6 cells was plated with the culture medium (5000 cells/well/per 200 μl) into 96-well polystyrene clear black tissue culture plate (Greiner-bio-one through VWR, NJ) in the presence or absence of a concentration range of test compounds. After 3 days, Cell Titer-GLO Luminescent (Promega, Madison, Wis.) cell culture agent was added to each well for 10 minutes at room temperature to stabilize the luminescent signal. This determines the number of viable cells in culture based on quantitation of the ATP present, which signals the presence of metabolically active cells. Luminescence was measured with the TopCount 384 (Packard Bioscience through Perkin Elmer, Boston, Mass.). […] IC50 data for the Examples is presented in Table 4 determined by the assay of Example B3.
(ATP-based viability assays read luminescence as a measure of living cells.)
In the case of `CCC(=O)N1CC(N2Cc3c(F)c(Cl)cc(C(C)n4nc(C)c5c(N)ncnc54)c3OC(C)C2)C1` (stereo not shown) [Example 76, 1-{1-[7-chloro-6-fluoro-2-methyl-4-(1-propionylazetidin-3-yl)-2,3,4,5-tetrahydro-1,4-benzoxazepin-9-yl]ethyl}-3-methyl-1H-pyrazolo[3,4-d]pyrimidin-4-amine], the IC50 was ≤ 500 nM. Regarding `COCCN1Cc2c(C#N)c(Cl)cc(C(C)n3nc(C)c4c(N)ncnc43)c2OC(C)C1` (single isomer, unassigned) [Example 112, 9-[1-(4-amino-3-methyl-1H-pyrazolo[3,4-d]pyrimidin-1-yl)ethyl]-7-chloro-4-(2-methoxyethyl)-2-methyl-2,3,4,5-tetrahydro-1,4-benzoxazepine-6-carbonitrile], the IC50 was ≤ 500 nM. Still for that read-out and setting: with `CC(=O)N1CC(N2CCOc3c(C(C)n4nc(C)c5c(N)ncnc54)cc(Cl)c(F)c3C2)C1` (stereo not shown) [Example 34, 1-{1-[4-(1-Acetylazetidin-3-yl)-7-chloro-6-fluoro-2,3,4,5-tetrahydro-1,4-benzoxazepin-9-yl]ethyl}-3-methyl-1H-pyrazolo[3,4-d]pyrimidin-4-amine] the figure was ≤ 500 nM; with `Cc1nn(C(C)c2cc(Cl)c(C#N)c3c2O[C@@H](C)CN(C2CN(CCO)C2)C3)c2ncnc(N)c12` (stereo partly drawn) [Example 56, (2S)-9-[1-(4-Amino-3-methyl-1H-pyrazolo[3,4-d]pyrimidin-1-yl)ethyl]-7-chloro-4-[1-(2-hydroxyethyl)azetidin-3-yl]-2-methyl-2,3,4,5-tetrahydro-1,4-benzoxazepine-6-carbonitrile], ≤ 500 nM; with `Cc1nn(C(C)c2cc(Cl)c(C#N)c3c2OC(C)CN(C2CN(CC(N)=O)C2)C3)c2ncnc(N)c12` (single isomer, unassigned) [Example 50, 2-{3-[9-[1-(4-Amino-3-methyl-1H-pyrazolo[3,4-d]pyrimidin-1-yl)ethyl]-7-chloro-6-cyano-2-methyl-2,3-dihydro-1,4-benzoxazepin-4(5H)-yl]azetidin-1-yl}acetamide], ≤ 500 nM. `CCC(=O)N1CCOc2c(C(C)n3nc(C)c4c(N)ncnc43)cc(Cl)c(C)c2C1` (stereo not shown) [Example 20, 1-[1-(7-Chloro-6-methyl-4-propionyl-2,3,4,5-tetrahydro-1,4-benzoxazepin-9-yl)ethyl]-3-methyl-1H-pyrazolo[3,4-d]pyrimidin-4-amine Trifluoroacetate]: the half-inhibitory concentration (IC50) is ≤ 500 nM. In turn, `CC(=O)N1CC(N2Cc3c(F)c(Cl)cc(C(C)n4nc(C)c5c(N)ncnc54)c3OC(C)C2=O)C1` (stereo not shown) [Example 71, 4-(1-Acetylazetidin-3-yl)-9-[1-(4-amino-3-methyl-1H-pyrazolo[3,4-d]pyrimidin-1-yl)ethyl]-7-chloro-6-fluoro-2-methyl-4,5-dihydro-1,4-benzoxazepin-3(2H)-one] returned an IC50 of 500 to 1000 nM.

The test is the same for the next values; noted with them: SUDHL-6 cells, 3 days, Cell Titer-GLO.
With `Cc1nn(C(C)c2cc(Cl)c(F)c3c2OC(C)CN(C2CN(C(N)=O)C2)C3)c2ncnc(N)c12` (single isomer, unassigned) [Example 84, 3-[9-[1-(4-amino-3-methyl-1H-pyrazolo[3,4-d]pyrimidin-1-yl)ethyl]-7-chloro-6-fluoro-2-methyl-2,3-dihydro-1,4-benzoxazepin-4(5H)-yl]azetidine-1-carboxamide], the IC50 is ≤ 500 nM. Consider `CC(=O)NC1CC(N2Cc3c(C#N)c(Cl)cc(C(C)n4nc(C)c5c(N)ncnc54)c3OC(C)C2)C1` (single isomer, unassigned) [Example 68, N-{3-[9-[1-(4-Amino-3-methyl-1H-pyrazolo[3,4-d]pyrimidin-1-yl)ethyl]-7-chloro-6-cyano-2-methyl-2,3-dihydro-1,4-benzoxazepin-4(5H)-yl]cyclobutyl}acetamide], for which the IC50 was ≤ 500 nM. Consider `CCOC(=O)N1CC(N2Cc3c(C#N)c(Cl)cc(C(C)n4nc(C)c5c(N)ncnc54)c3OC(C)C2)C1` (single isomer, unassigned) [Example 100, ethyl 3-[9-[1-(4-amino-3-methyl-1H-pyrazolo[3,4-d]pyrimidin-1-yl)ethyl]-7-chloro-6-cyano-2-methyl-2,3-dihydro-1,4-benzoxazepin-4(5H)-yl]azetidine-1-carboxylate], for which the IC50 was ≤ 500 nM.

Source of the values: patent US10259818B2, “Bicyclic azaheterocyclobenzylamines as PI3K inhibitors” (Incyte Corporation, priority 2012, dated 2019).
